Measured values published in patent US4895931A, “Phospholipase A2 -inhibiting peptides” (Kyowa Hakko Kogyo Co., Ltd., priority 1988, dated 1990).
Where a SMILES comes first, the peptide text is derived from it.

Target: T1, porcine pancreas PLA2 (Sus scrofa, UniProt P00592)
T1 construct: purchased Sigma Chemical Co. P6534; host or cells: porcine pancreas
Experiment: PLA2-inhibiting activity (release of [1-14C] arachidonic acid from labelled phosphatidylcholine)
Assay type: biochemical
Conditions: for Inhibition ratio (Inhibition rate of test compound/Inhibition rate of Compound (IV)): Amount of sample: 100 mg, relative to Compound (IV) = 1.00
Description: A test compound was dissolved in 280 μl of 0.1M Tris-hydrochloride buffer (pH 8.8) containing 10 mM calcium chloride. To the solution was added a solution of 20 ng of porcine pancreas PLA2 (Sigma Chemical Co., catalog No. P6534) in 10 μl of the buffer having the same composition as above, followed by incubation at 37° C. for 10 minutes. To the resulting mixture was added a solution of 0.1 μCi of α-palmitoyl-β[1-^14 C] arachidonylphosphatidylcholine (54 μCi/μmol, NEN Research Products Co.) in 10 μl of the same buffer as above wherein micelles were formed, followed by incubation at 37° C. for 10 minutes. Then, 3 ml of a Dale reagent solution [2-propanol :n-heptane :1M sulfuric acid=40:10:1 v/v mixture; Methods in Enzymology 14, 167 (1969)] was added to stop the reaction, and 1.5 ml of n-heptane and 1 ml of water were added, followed by shaking. Radioactivity of the free [1-^14 C] arachidonic acid extracted to the heptane layer was measured. The value of this specific radioactivity is referred to as "a". Further, "b" and "c" refer to the specific radioactivity of the heptane layer obtained by adding the same amount of the buffer in place of the test compound solution and that of the heptane layer obtained by adding the same amount of the buffer in place of the test compound and PLA2, respectively. The inhibition rate (x) was calculated by the following equation: [formula]

T1 sequence (P00592 23-146): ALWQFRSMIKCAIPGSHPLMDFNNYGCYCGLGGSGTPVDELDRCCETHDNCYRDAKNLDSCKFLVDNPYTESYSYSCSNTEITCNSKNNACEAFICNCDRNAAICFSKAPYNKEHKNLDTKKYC

Molecule	Inhibition ratio (Inhibition rate of test compound/Inhibition rate of Compound (IV))	other results
CC[C@H](C)[C@H](N)C(=O)N[C@@H](CCCCN)C(=O)N[C@@H](C)C(=O)N[C@@H](Cc1ccccc1)C(=O)N[C@@H](Cc1ccc(O)cc1)C(=O)N[C@@H](CCC(N)=O)C(=O)N[C@@H](CCCCN)C(=O)N[C@@H](CCSC)C(=O)N[C@@H](Cc1ccc(O)cc1)C(=O)NCC(=O)N[C@H](C(=O)N[C@@H](CO)C(=O)N[C@@H](CC(C)C)C(=O)N[C@@H](CS)C(=O)N[C@@H](CCC(N)=O)C(=O)N[C@@H](C)C(=O)O)[C@@H](C)CC [XII] (H-IKAFYQKMYGISLCQA-OH)	–	IC50 compared with that of lipocortin (in words): almost equal to that of lipocortin; IC50 (read-out: IC50 (concentration required for inhibiting the PLA2 activity by 50%) (converted)): 1.07 µM
CC(C)C[C@H](NC(=O)[C@H](C)NC(=O)[C@H](CCCCN)NC(=O)[C@H](CCCCN)NC(=O)[C@H](CC(C)C)NC(=O)[C@@H](NC(=O)[C@H](CCC(=O)O)NC(=O)[C@H](CC(=O)O)NC(=O)[C@H](CC(C)C)NC(=O)[C@@H]1CCCN1C(=O)[C@@H](N)CCCCN)[C@@H](C)O)C(=O)N[C@H](C(=O)NCC(=O)N[C@@H](Cc1c[nH]cn1)C(=O)N[C@@H](CC(C)C)C(=O)N[C@@H](CCC(=O)O)C(=O)O)[C@@H](C)O [IV] (H-KPLDETLKKALTGHLE-OH)	1.00	PLA2-inhibiting activity (in words): medium
CC[C@H](C)[C@H](N)C(=O)N[C@@H](CCCCN)C(=O)N[C@@H](C)C(=O)N[C@@H](C)C(=O)N[C@@H](Cc1ccc(O)cc1)C(=O)N[C@@H](CC(C)C)C(=O)N[C@@H](CCC(N)=O)C(=O)N[C@@H](CCC(=O)O)C(=O)N[C@H](C(=O)NCC(=O)N[C@@H](CCCCN)C(=O)N1CCC[C@H]1C(=O)N[C@@H](CC(C)C)C(=O)N[C@@H](CC(=O)O)C(=O)N[C@@H](CCC(=O)O)C(=O)N[C@H](C(=O)N[C@@H](CC(C)C)C(=O)N[C@@H](CCCCN)C(=O)N[C@@H](CCCCN)C(=O)N[C@@H](C)C(=O)N[C@@H](CC(C)C)C(=O)N[C@H](C(=O)NCC(=O)N[C@@H](Cc1c[nH]cn1)C(=O)N[C@@H](CC(C)C)C(=O)N[C@@H](CCC(=O)O)C(=O)O)[C@@H](C)O)[C@@H](C)O)[C@@H](C)O [III] (H-IKAAYLQETGKPLDETLKKALTGHLE-OH)	0.20	–
CC[C@H](C)[C@H](N)C(=O)N[C@@H](CCC(=O)O)C(=O)N[C@H](C(=O)N[C@@H](CC(C)C)C(=O)N[C@@H](C)C(=O)N[C@@H](CO)C(=O)N[C@@H](CCCNC(=N)N)C(=O)N[C@H](C(=O)N[C@@H](CC(N)=O)C(=O)N[C@@H](CCCCN)C(=O)N[C@@H](CCC(=O)O)C(=O)N[C@H](C(=O)N[C@@H](CCCNC(=N)N)C(=O)N[C@@H](CC(=O)O)C(=O)N[C@H](C(=O)O)[C@@H](C)CC)[C@@H](C)CC)[C@@H](C)O)[C@@H](C)CC [V] (H-IEILASRTNKEIRDI-OH)	0.56	–
CC[C@H](C)[C@H](NC(=O)[C@H](C)NC(=O)[C@@H](NC(=O)[C@H](CC(C)C)NC(=O)[C@H](CS)NC(=O)[C@@H](N)CCCCN)[C@@H](C)O)C(=O)N[C@H](C(=O)N[C@@H](CCCCN)C(=O)N[C@@H](CS)C(=O)N[C@@H](C)C(=O)N[C@H](C(=O)N[C@@H](CO)C(=O)N[C@@H](CCCCN)C(=O)N1CCC[C@H]1C(=O)N[C@@H](C)C(=O)O)[C@@H](C)O)C(C)C [VIII] (H-KCLTAIVKCATSKPA-OH; N-terminus and C-terminus assumed)	1.06	–
CC[C@H](C)[C@H](NC(=O)[C@H](CCCNC(=N)N)NC(=O)[C@@H](NC(=O)[C@H](CC(C)C)NC(=O)[C@H](C)NC(=O)[C@H](CCCCN)NC(=O)[C@H](Cc1c[nH]cn1)NC(=O)[C@H](CCCNC(=N)N)NC(=O)[C@@H](NC(=O)CNC(=O)[C@@H](NC(=O)CN)C(C)C)[C@@H](C)O)[C@@H](C)CC)C(=O)N[C@@H](CCSC)C(=O)N[C@H](C(=O)N[C@@H](CO)C(=O)N[C@@H](CCCNC(=N)N)C(=O)O)C(C)C [X] (H-GVGTRHKALIRIMVSR-OH; N-terminus and C-terminus assumed)	1.19	–
rLC: lipocortin prepared using Escherichia coli according to the method of Wallner, et al. (protein, UniProt P04083 2-346, looked up, recombinant, E. coli) Annexin A1: AMVSEFLKQAWFIENEEQEYVQTVKSSKGGPGSAVSPYPTFNPSSDVAALHKAIMVKGVDEATIIDILTKRNNAQRQQIKAAYLQETGKPLDETLKKALTGHLEEVVLALLKTPAQFDADELRAAMKGLGTDEDTLIEILASRTNKEIRDINRVYREELKRDLAKDITSDTSGDFRNALLSLAKGDRSEDFGVNEDLADSDARALYEAGERRKGTDVNVFNTILTTRSYPQLRRVFQKYTKYSKHDMNKVLDLELKGDIEKCLTAIVKCATSKPAFFAEKLHQAMKGVGTRHKALIRIMVSRSEIDMNDIKAFYQKMYGISLCQAILDETKGDYEKILVALCGGN	–	IC50 (concentration required for inhibiting the PLA2 activity by 50%): 1.5 µg/mL
